biological target: T1, human p38 kinase alpha (Homo sapiens, UniProt Q16539); experiment: p38 kinase in vitro assay, phosphorylation of biotinylated PHAS-I with gamma 32P-ATP; type: biochemical; conditions: @ 1.0 uM
T1 construct: The coding region of the human p38a cDNA was obtained by PCR-amplification from RNA isolated from the human monocyte cell line THP.1; GST (N); made in house; host or cells: E. coli DH10B
Procedure: The ability of compounds to inhibit human p38 kinase alpha was evaluated using two in vitro assay methods. In the first method activated human p38 kinase alpha phosphorylates a biotinylated substrate, PHAS-I (phosphorylated heat and acid stable protein-insulin inducible), in the presence of gamma ^32P-ATP (^32P-ATP). PHAS-I was biotinylated prior to the assay and provides a means of capturing the substrate which is phosphorylated during the assay. p38 Kinase was activated by MKK6. Compounds were tested in 10 fold serial dilutions over the range of 100 μM to 0.001 μM using 1% DMSO. Each concentration of inhibitor was tested in triplicate.
All reactions were carried out in 96 well polypropylene plates. Each reaction well contained 25 mM HEPES pH 7.5, 10 mM magnesium acetate and 50 μM unlabeled ATP. […] The reaction proceeded either for one hour or overnight at 30° C.
Following incubation, 20 μl of reaction mixture was transferred to a high capacity streptavidin coated filter plate (SAM-streptavidin-matrix, Promega) prewetted with phosphate buffered saline. […] Filter plates were air dried and 20 μl of scintillant was added. The plates were sealed and counted.

T1 sequence (Q16539 whole entry): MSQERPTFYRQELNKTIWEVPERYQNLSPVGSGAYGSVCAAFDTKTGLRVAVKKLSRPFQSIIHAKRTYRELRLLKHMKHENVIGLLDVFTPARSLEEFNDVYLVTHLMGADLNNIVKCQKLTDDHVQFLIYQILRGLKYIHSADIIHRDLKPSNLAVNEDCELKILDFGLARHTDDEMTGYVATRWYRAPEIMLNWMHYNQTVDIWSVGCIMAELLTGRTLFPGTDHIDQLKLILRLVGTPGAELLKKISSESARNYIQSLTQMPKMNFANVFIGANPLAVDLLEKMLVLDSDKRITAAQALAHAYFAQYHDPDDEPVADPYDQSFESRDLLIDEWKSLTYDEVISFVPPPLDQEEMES

Compared with `O=C(NCc1[nH]nc(-c2ccc(F)cc2)c1-c1ccncc1)c1cccc2ccccc12` [Example B-0037], `N#Cc1ccc(C(=O)NCc2[nH]nc(-c3ccc(F)cc3)c2-c2ccncc2)cc1` [Example B-0001] is lower in “P38 alpha kinase % inhib @ conc.” value: 91.0% @ 1.0 uM for the first, 53.0% @ 1.0 uM for the second.

Compared with `COC(=O)C(=O)NCc1[nH]nc(-c2ccc(F)cc2)c1-c1ccncc1` [Example B-0025], `O=C(NCc1[nH]nc(-c2ccc(F)cc2)c1-c1ccncc1)C(F)(F)C(F)(F)C(F)(F)F` [Example B-0046] is higher in “P38 alpha kinase % inhib @ conc.” value: 89.0% @ 1.0 uM for the first, 96.0% @ 1.0 uM for the second.

same assay, conditions: @ 1.0 uM; read-out: P38 alpha kinase % inhib @ conc.

Going from `Cc1cc(C)c(C(=O)NCc2[nH]nc(-c3ccc(F)cc3)c2-c2ccncc2)c(C)c1` [Example B-0049] to `Cc1cc(C)c(S(=O)(=O)NCc2[nH]nc(-c3ccc(F)cc3)c2-c2ccncc2)c(C)c1` [Example B-0109], the inhibition at 1 µM falls from 88% to 45%.

Compared with `O=C(NCc1[nH]nc(-c2ccc(F)cc2)c1-c1ccncc1)c1ccccc1` [Example B-0063], `O=C(NCc1[nH]nc(-c2ccc(F)cc2)c1-c1ccncc1)c1ccccc1F` [Example B-0074] is lower in inhibition at 1 µM: 96% for the first, 92% for the second.

First: O=[N+]([O-])c1ccccc1S(=O)(=O)NCc1[nH]nc(-c2ccc(F)cc2)c1-c1ccncc1 [Example B-0113]
Second: O=S(=O)(NCc1[nH]nc(-c2ccc(F)cc2)c1-c1ccncc1)c1ccccc1F [Example B-0133]
The inhibition at 1 µM of the first is higher: 75% for the first, 51% for the second.

Compared with `C=CCNC(=O)NCc1[nH]nc(-c2ccc(F)cc2)c1-c1ccncc1` [Example B-0170], `C[C@@H](NC(=O)NCc1[nH]nc(-c2ccc(F)cc2)c1-c1ccncc1)c1ccccc1` [Example B-0176] is higher in inhibition at 1 µM: 43% for the first, 50% for the second.

Compared with `O=[N+]([O-])c1ccccc1CS(=O)(=O)NCc1[nH]nc(-c2ccc(F)cc2)c1-c1ccncc1` [Example B-0112], `O=S(=O)(NCc1[nH]nc(-c2ccc(F)cc2)c1-c1ccncc1)c1ccc(Cl)cc1Cl` [Example B-0126] is lower in inhibition at 1 µM: 97% for the first, 66% for the second.

First: COc1ccc(S(=O)(=O)NCc2[nH]nc(-c3ccc(F)cc3)c2-c2ccncc2)cc1OC [Example B-0131]
Second: COc1cccc(OC)c1C(=O)NCc1[nH]nc(-c2ccc(F)cc2)c1-c1ccncc1 [Example B-0070]
The inhibition at 1 µM of the first is lower: 43% for the first, 92% for the second.

With `O=C(NCc1[nH]nc(-c2ccc(F)cc2)c1-c1ccncc1)c1cc(F)ccc1F` [Example B-0095] the inhibition at 1 µM was 98%.

same assay, conditions: @ 10.0 uM; read-out: P38 alpha kinase % inhib @ conc.

Going from `O=C(NCc1[nH]nc(-c2ccc(F)cc2)c1-c1ccncc1)Nc1ccc(Oc2ccccc2)cc1` [Example B-0155] to `O=C(NCc1[nH]nc(-c2ccc(F)cc2)c1-c1ccncc1)Nc1ccc(-c2ccccc2)cc1` [Example B-0180], the inhibition at 10 µM falls from 40% to 34%.

First: CCCCN(CCCC)c1cccc2c(S(=O)(=O)NCc3[nH]nc(-c4ccc(F)cc4)c3-c3ccncc3)cccc12 [Example B-0139]
Second: CC(NC(=O)NCc1[nH]nc(-c2ccc(F)cc2)c1-c1ccncc1)c1cccc2ccccc12 (stereo not drawn) [Example B-0184]
The inhibition at 10 µM of the first is lower: 54% for the first, 66% for the second.

Compared with `O=C(NCc1[nH]nc(-c2ccc(F)cc2)c1-c1ccncc1)Nc1ccc(F)cc1` [Example B-0174], `COc1ccccc1NC(=O)NCc1[nH]nc(-c2ccc(F)cc2)c1-c1ccncc1` [Example B-0166] is lower in inhibition at 10 µM: 54% for the first, 45% for the second.

Molecule `O=C(NCc1[nH]nc(-c2ccc(F)cc2)c1-c1ccncc1)Nc1cccc(Cl)c1Cl` [Example B-0192] has an inhibition at 10 µM of 12%.

same assay, conditions: activated human p38 kinase alpha, PHAS-I substrate, 50 μM unlabeled ATP; read-out: p38 kinase IC50

`COc1cc(F)cc(-c2[nH]nc(C)c2-c2ccncc2)c1` [Example A-25, 4-{5-(3-Fluoro-5-methoxyphenyl)-3-methyl-3-methyl-1H-pyrazol-4-yl}pyridine] and `Cc1n[nH]c(-c2ccccc2O)c1-c1ccncc1` [Example A-16] are within 1.5-fold of each other in IC50: 2600 nM for the first, 3800 nM for the second.

same assay, conditions: p38α in vitro, PHAS-I assay procedure; read-out: p38^1 IC50

Compared with `OCCNc1cc(-c2c[nH]nc2-c2ccc(F)cc2)ccn1` [Example A-280], `OCCn1cc(-c2ccnc(NCc3ccc(F)cc3)c2)c(-c2ccc(F)cc2)n1` [Example A-289, 3-(4-fluorophenyl)-4-[2-[[(4-fluorophenyl)methyl]amino]-4-pyridinyl]-1H-pyrazole-1-ethanol] is lower in IC50: 134 nM for the first, under 100 nM for the second. The second is the more potent here.

same assay, conditions: read-out: P38 alpha kinase IC50

Compared with `C[C@@H](NS(=O)(=O)c1cc(Cl)ccc1Cl)c1[nH]nc(-c2ccc(F)cc2)c1-c1ccncc1` [Example B-0438], `COc1ccc(Cl)cc1S(=O)(=O)NC(C)c1[nH]nc(-c2ccc(F)cc2)c1-c1ccncc1` (stereo not drawn) [Example B-0655] is higher in IC50: under 100 nM for the first, 1250 nM for the second.

Going from `O=C(NCc1[nH]nc(-c2ccc(F)cc2)c1-c1ccncc1)c1cccc(F)c1` [Example B-0292] to `Cc1cccc(C(=O)NCc2[nH]nc(-c3ccc(F)cc3)c2-c2ccncc2)c1` [Example B-0290], the IC50 rises from 220 nM to 660 nM (3-fold). The first is the more potent here.

`CC(NC(=O)c1ccc(F)cc1C(F)(F)F)c1[nH]nc(-c2ccc(F)cc2)c1-c1ccncc1` (stereo not drawn) [Example B-0688] and `C[C@@H](NC(=O)c1cccc(C(F)(F)F)c1F)c1[nH]nc(-c2ccc(F)cc2)c1-c1ccncc1` [Example B-0510] are within 1.5-fold of each other in IC50: 660 nM for the first, 690 nM for the second.

Compared with `CC(C)(C)C(=O)NCc1[nH]nc(-c2ccc(F)cc2)c1-c1ccncc1` [Example B-0201], `O=C(O)CCc1[nH]nc(-c2ccc(F)cc2)c1-c1ccncc1` [Example C-135, 4-(4-(4-PYRIDYL)-3-(4-FLUOROPHENYL)PYRAZOLYL)PROPIONIC ACID] is 21-fold higher in IC50: 290 nM for the first, 6000 nM for the second.

Going from `CC(NS(=O)(=O)c1ccc(-c2ccccc2)cc1)c1[nH]nc(-c2ccc(F)cc2)c1-c1ccncc1` (stereo not drawn) [Example B-0658] to `CCc1ccc(S(=O)(=O)N[C@H](C)c2[nH]nc(-c3ccc(F)cc3)c2-c2ccncc2)cc1` [Example B-0460], the IC50 falls from 1140 nM to 61 nM (19-fold).

`CC(NC(=O)c1cc(F)cc(F)c1)c1[nH]nc(-c2ccc(F)cc2)c1-c1ccncc1` (stereo not drawn) [Example B-0679] and `C[C@@H](NC(=O)c1ccc(F)c(F)c1)c1[nH]nc(-c2ccc(F)cc2)c1-c1ccncc1` [Example B-0501] are within 1.5-fold of each other in IC50: 62 nM for the first, 49 nM for the second.

First: O=C(c1ccccc1Br)N1CCC(c2[nH]nc(-c3ccc(F)cc3)c2-c2ccncc2)CC1 [Example B-1398]
Second: NC(=O)NC(Cc1ccccc1)c1[nH]nc(-c2ccc(F)cc2)c1-c1ccncc1 (stereo not drawn) [Example B-0724]
The IC50 of the first is 15-fold higher: 920 nM for the first, 60 nM for the second. The second is the more potent here.

Going from `C[C@@H](NS(=O)(=O)c1cccc2c(N(C)C)cccc12)c1[nH]nc(-c2ccc(F)cc2)c1-c1ccncc1` [Example B-0444] to `COc1ccc(S(=O)(=O)N[C@H](C)c2[nH]nc(-c3ccc(F)cc3)c2-c2ccncc2)cc1` [Example B-0397], the IC50 falls from 1010 nM to 170 nM (5.9-fold). The second is the more potent here.

Going from `C[C@@H](NC(=O)Nc1ccccc1F)c1[nH]nc(-c2ccc(F)cc2)c1-c1ccncc1` [Example B-0410] to `C[C@@H](NC(=O)N[C@H](C)c1[nH]nc(-c2ccc(F)cc2)c1-c1ccncc1)c1ccccc1` [Example B-0417], the IC50 rises from 380 nM to 910 nM (2.4-fold).

First: CC1(C)C2CCC1(CS(=O)(=O)NCc1[nH]nc(-c3ccc(F)cc3)c1-c1ccncc1)C(=O)C2 (stereo not drawn) [Example B-0226]
Second: O=S(=O)(NCc1[nH]nc(-c2ccc(F)cc2)c1-c1ccncc1)c1cccc(Cl)c1 [Example B-0239]
The IC50 of the first is 77-fold lower: 74 nM for the first, 5730 nM for the second.

Going from `C[C@@H](NS(=O)(=O)c1cc(S(=O)(=O)c2ccccc2)cs1)c1[nH]nc(-c2ccc(F)cc2)c1-c1ccncc1` [Example B-0484] to `C[C@@H](NS(=O)(=O)c1cccs1)c1[nH]nc(-c2ccc(F)cc2)c1-c1ccncc1` [Example B-0398], the IC50 falls from 280 nM to 54 nM (5.2-fold). The second is the more potent here.

Compared with `C[C@@H](NC(=O)c1ccc(F)c(F)c1F)c1[nH]nc(-c2ccc(F)cc2)c1-c1ccncc1` [Example B-0369], `Cc1cccc(C(=O)N[C@H](C)c2[nH]nc(-c3ccc(F)cc3)c2-c2ccncc2)c1` [Example B-0515] is 2.6-fold higher in IC50: 160 nM for the first, 420 nM for the second.

Going from `COc1ccc(NC(=O)N[C@H](C)c2[nH]nc(-c3ccc(F)cc3)c2-c2ccncc2)cc1` [Example B-0419] to `COc1cccc(C(=O)NC(C)c2[nH]nc(-c3ccc(F)cc3)c2-c2ccncc2)c1` (stereo not drawn) [Example B-0557], the IC50 rises from 850 nM to 1370 nM (1.6-fold).

Going from `Cc1cc(C)c(C(=O)N[C@H](C)c2[nH]nc(-c3ccc(F)cc3)c2-c2ccncc2)c(C)c1` [Example B-0505] to `C[C@@H](NC(=O)c1ccncc1)c1[nH]nc(-c2ccc(F)cc2)c1-c1ccncc1` [Example B-0378], the IC50 rises from 280 nM to 1100 nM (3.9-fold). The first is the more potent here.

First: CC(=O)OCC(=O)N[C@H](C)c1[nH]nc(-c2ccc(F)cc2)c1-c1ccncc1 [Example B-0353]
Second: COCC(=O)N[C@H](C)c1[nH]nc(-c2ccc(F)cc2)c1-c1ccncc1 [Example B-0366]
The IC50 of the first is 2-fold higher: 1370 nM for the first, 700 nM for the second.

First: Cc1noc(C)c1S(=O)(=O)N[C@H](C)c1[nH]nc(-c2ccc(F)cc2)c1-c1ccncc1 [Example B-0476]
Second: CC(NS(=O)(=O)c1ccc(C(F)(F)F)cc1)c1[nH]nc(-c2ccc(F)cc2)c1-c1ccncc1 (stereo not drawn) [Example B-0459]
The IC50 of the first is 5.7-fold higher: 560 nM for the first, 99 nM for the second.

Compared with `N#Cc1ccc(S(=O)(=O)NCc2[nH]nc(-c3ccc(F)cc3)c2-c2ccncc2)cc1` [Example B-0254], `O=S(=O)(NCc1[nH]nc(-c2ccc(F)cc2)c1-c1ccncc1)c1cc(Cl)ccc1Cl` [Example B-0229] is lower in IC50: 120 nM for the first, under 100 nM for the second. The second is the more potent here.

`CCCS(=O)(=O)NC(Cc1ccccc1)c1[nH]nc(-c2ccc(F)cc2)c1-c1ccncc1` (stereo not drawn) [Example B-0715] was tested, and the IC50 was 3200 nM.
